In general, MIC refers to the lowest concentration that inhibits growth of the organism. Higher therefore signals weaker potency.

This passage reports MIC results from patent US4436918A, “Method for production of peptide, and its intermediate” (Takeda Chemical Industries, Ltd., priority 1981, dated 1984).

Common to all, as to experiment: Antibacterial activity, agar dilution method (MIC)
Format in all cases: cell-based

For assay [1], the system named is Bacillus subtilis PCI 219. Particulars: PCI219, 10^6 CFU/ml, 37° C., 18-20 hours, pH 7.0. On the procedure:
(§1) The above-mentioned minimum inhibitory concentration (MIC; μg/ml) values were determined by the agar dilution method using the medium mentioned below. The inoculum size was one loopful with a viable count of 10^6 CFU/ml. Incubation was performed at 37° C. for 18-20 hours. Medium: glucose 3%, sodium glutamate 0.5%, K2 HPO4 0.05%, MgSO4.7H2 O 0.05%, KCl 0.05%, yeast extract (Difco) 0.05%, Casamino acid 0.02%, agar 1.5% (pH 7.0).

Assay [2] relates to Escherichia coli NIHJ JC-2. The settings on record: NIHJJC2, 10^6 CFU/ml, 37° C., 18-20 hours, pH 7.0. As for the experimental part:
as §1

Assay [3] concerns Proteus morganii IFO 3168. The settings on record: Morganella morganii, IFO3168, 10^6 CFU/ml, 37° C., 18-20 hours, pH 7.0. As for the experimental part: as §1
Assay [4] deals with Proteus vulgaris IFO 3045. The settings on record: IFO3045, 10^6 CFU/ml, 37° C., 18-20 hours, pH 7.0. As for the experimental part: as §1
For assay [5], the system named is Proteus vulgaris IFO 3988. The settings on record: IFO3988, 10^6 CFU/ml, 37° C., 18-20 hours, pH 7.0. On the procedure: as §1

In brackets after ≈: the same amount, converted by molar mass.

For the compound `C[C@@H](N)C(=O)NC(C(=O)O)C1CC(O)NC1=O` (stereo partly drawn) [D-Alanyl-2-(5-hydroxy-2-oxopyrrolidin-3-yl)glycine], the MIC in assay [1] is 6 to 24 µg/mL (≈ 24.5 to 97.9 µM); in assay [2] it was 3 to 12 µg/mL (≈ 12.2 to 48.9 µM); in assay [3], 3 to 12 µg/mL (≈ 12.2 to 48.9 µM); in assay [4] it was 0.6 to 2.4 µg/mL (≈ 2.45 to 9.79 µM); in assay [5], 1.6 to 4.8 µg/mL (≈ 6.52 to 19.6 µM).
